{"source": "patent US20120029078A1", "about": "“COMPOSITIONS COMPRISING MYRISTIC ACID AND USES THEREOF” (IMAGENETIX, INC., priority 2010, published 2012)", "key": {"[1]": {"system": "IL-10", "assay": "CD3/CD28-activated cytokine release from human primary T-lymphocytes: IL-10", "format": "cell-based", "details": "24 and 48 hours; FIG. 9", "protocol": "(§1) Cytokine release from T-lymphocytes was measured and assessed in order to determine the anti-inflammatory effects of cetylated fatty acids such as 1-TDC and uncetylated fatty acids such as myristic acid. More specifically, the following compounds were tested: 1-TDC, 2-TDC, cetyl myristate (CM), myristic acid (MA), palmityl myristate (PM), palmityl oleate (PO), and palmityl myristoleate (PMO). For this experiment, peripheral blood mononuclear cells were isolated from healthy donors (n=8) with no known medication use by Ficoll-Hypaque density gradient centrifugation. Primary T-lymphocytes were separated from other mononuclear cells (e.g., monocytes) by negative selection using magnetic cell sorting (Dynal, Invitrogen) and pure cell cultures were treated with various doses of tested compounds for 30 minutes. The tested doses were 10^−5-10^−9M. […] Supernatants were collected at 24 and 48 hours and were stored at −80° C. until analyzed. […] The cytokine release was analyzed by xMAP multiplexing technology using Luminex 100 platform. […] The following T-lymphocyte associated cytokines: IFN-γ, IL-2, IL-10, IL-5, and IL-4 were assessed. […] While the validity of this shift is questioned in different diseases and/or infections, the central role of T cells in the progression of inflammation is still evaluated on the cytokine release by these subsets of lymphocytes. […]"}, "[2]": {"system": "IL-5", "assay": "CD3/CD28-activated cytokine release from human primary T-lymphocytes: IL-5", "format": "cell-based", "details": "24 and 48 hours; FIG. 11", "protocol": "as §1"}, "[3]": {"system": "IFN-γ", "assay": "CD3/CD28-activated cytokine release from human primary T-lymphocytes: IFN-γ", "format": "cell-based", "details": "FIG. 7", "protocol": "Cytokine release from T-lymphocytes was measured and assessed in order to determine the anti-inflammatory effects of cetylated fatty acids such as 1-TDC and uncetylated fatty acids such as myristic acid. More specifically, the following compounds were tested: 1-TDC, 2-TDC, cetyl myristate (CM), myristic acid (MA), palmityl myristate (PM), palmityl oleate (PO), and palmityl myristoleate (PMO). For this experiment, peripheral blood mononuclear cells were isolated from healthy donors (n=8) with no known medication use by Ficoll-Hypaque density gradient centrifugation. Primary T-lymphocytes were separated from other mononuclear cells (e.g., monocytes) by negative selection using magnetic cell sorting (Dynal, Invitrogen) and pure cell cultures were treated with various doses of tested compounds for 30 minutes. The tested doses were 10^−5-10^−9M. Vehicle, which was used to dissolve the compounds into an aqueous preparation, was used as the negative control while dexamethasone (1 nM) was used as the positive control. After the incubation with test compounds, half the samples were treated with DynaBeads (Dynal, Invitrogen) coated with CD3 and CD28 antibodies as the activator of cell cytokine release. Cells were incubated over various time points at 37° C. under 5% CO2. Supernatants were collected at 24 and 48 hours and were stored at −80° C. until analyzed. Each sample was prepared in triplicates. The cytokine release was analyzed by xMAP multiplexing technology using Luminex 100 platform. This method allowed simultaneous analyses of all the cytokines proposed in this experiment. The following T-lymphocyte associated cytokines: IFN-γ, IL-2, IL-10, IL-5, and IL-4 were assessed. […] A paradigm shift between the cytokines by Th1 and Th2 indicates a more or less inflammatory process depending on which of these cytokines are increased. While the validity of this shift is questioned in different diseases and/or infections, the central role of T cells in the progression of inflammation is still evaluated on the cytokine release by these subsets of lymphocytes. Data was gathered throughout 24- and 48-hour time points for T-lymphocyte mediated release. Each experiment was repeated at least 3 times and data was presented as %-inhibition over the vehicle's effect of LPS-mediated cell activation."}, "[4]": {"system": "MCP-1", "assay": "LPS-activated cytokine release from human primary monocytes (xMAP Luminex): MCP-1", "format": "cell-based", "protocol": "(§2) Cytokine release from monocytes was measured and assessed in order to determine the anti-inflammatory effects of cetylated fatty acids such as 1-TDC and non-cetylated fatty acids such as myristic acid. Human primary monocytes were provided by healthy subjects (n=7) who were not taking medication, had no medical condition, and no periodontal or gingival inflammation. None of the subjects were smokers and all subjects were of Caucasian origin with an age range of 24-51 years old. All patient samples were obtained after the approval of the Institutional Review Board at Boston University Medical Center.\n(§3) Fresh peripheral venous blood ([…]) was obtained by venipuncture into heparinized (10 U/mL) glass tubes. Monocytes were isolated using Ficoll-Hypaque density gradient centrifugation and separated from the other mononuclear cells (e.g., lymphocytes) by adherence for over 2 hours. Pure cell cultures were treated with various doses (10^−5-10^−9 M) of various types of fatty acids such as 1-TDC and myristic acid for 30 minutes. Vehicle (5% ethyl alcohol), which was used to dissolve the compound into an aqueous preparation, was used as the negative control while dexamethasone (1 nM) was used as the positive control. After incubation with the test compound, half of the samples were treated with LPS from E. coli (100 ng/mL) as the activator of cell cytokine release over various time points (24 hours) at 37° C. under 5% CO2. Supernatants were collected and stored at −80° C. until analyzed. Each sample was prepared in triplicate. Cytokine release (IL-1β, TNF-α, IL-6, IL-12, IL-8, and MCP-1) was analyzed by xMAP multiplexing technology using Luminex 100 Platform. Data was presented as % inhibition over the vehicle's effect of LPS-mediated cell activation. Dexamethasone inhibition was taken as 100% inhibition.\n(§4) Cytokine release data were gathered at 6, 24, and 48 hour time points for monocyte/macrophages (FIGS. 3-5). Each experiment was repeated at least 3 times and data was presented as percentage of inhibition over the vehicle's effect of LPS-mediated cell activation."}, "[5]": {"system": "TNF-α", "assay": "LPS-activated cytokine release from human primary monocytes (xMAP Luminex): TNF-α", "format": "cell-based", "protocol": "as §2, §3, §4"}, "[6]": {"system": "IL-8", "assay": "LPS-activated cytokine release from human primary monocytes (xMAP Luminex): IL-8", "format": "cell-based", "details": "24 hours", "protocol": "as §2\n(§5) Fresh peripheral venous blood ([…]) was obtained by venipuncture into heparinized (10 U/mL) glass tubes. Monocytes were isolated using Ficoll-Hypaque density gradient centrifugation and separated from the other mononuclear cells (e.g., lymphocytes) by adherence for over 2 hours. Pure cell cultures were treated with various doses (10^−5-10^−9 M) of various types of fatty acids such as 1-TDC and myristic acid for 30 minutes. […] Supernatants were collected and stored at −80° C. until analyzed. […] Cytokine release (IL-1β, TNF-α, IL-6, IL-12, IL-8, and MCP-1) was analyzed by xMAP multiplexing technology using Luminex 100 Platform. […]"}, "[7]": {"system": "IL-4", "assay": "CD3/CD28-activated cytokine release from human primary T-lymphocytes: IL-4", "format": "cell-based", "details": "24 and 48 hours; FIG. 10", "protocol": "as §1"}, "[8]": {"system": "IL-12", "assay": "LPS-activated cytokine release from human primary monocytes (xMAP Luminex): IL-12", "format": "cell-based", "details": "24 hours", "protocol": "as §2, §5"}, "[9]": {"system": "P. gingivalis A7436", "assay": "Antibacterial activity: viability of P. gingivalis by Live/Dead BacLight staining and flow cytometry", "format": "cell-based, Porphyromonas gingivalis", "details": "for antibacterial capacity (percentage of dead bacteria) compared with chlorhexidine: FIG. 1, positive control chlorhexidine (CHX) 0.04%", "method": "P. gingivalis A7436 was cultured on laced blood paromomycin agar plates and then transferred to Schaedler's broth. All cultures were grown at 37° C. under anaerobic conditions. In order to dissolve the 1-TDC and MA in an aqueous medium that can be utilized in carrying out the experiments, the following ingredients were used: ethanol (EtOH) and Methyl-β-cyclodextrin (Sigma-Aldrich, St. Louis, Mo.). More specifically, 750.0 mg of Methyl-β-cyclodextrin was dissolved in 5.0 mL of nano-pure water to get a concentration 150.0 mg/mL (MBC). The MBC solution was stored in the refrigerator at a temperature of 4° C. and was returned to room temperature before use. MA was prepared by dissolving 90.0 mg in 3.0 mL of ETOH, 2.4 mL of MBC, and 24.6 mL of SB in a sterile tube. The entire mixture was placed in a hot bath at 30° C. for 30 minutes. The final concentration of MA was 3.0 mg/mL.\n2×10^7 cells were transferred to 5 mL culture tubes and treated with either 1-TDC or MA (1.0 mg/ml, 0.7 mg/mL, 0.5 mg/mL, 0.3 mg/mL, 0.1 mg/mL) or corresponding vehicle concentrations. A negative control was treated with additional Schaedler's broth. Tubes were incubated in anaerobic jars at 37° C. for several time points between 4-72 hours.\nAfter incubation, viability of the P. gingivalis cells was assessed. 1 mL of each sample was removed and spun down. Bacteria were resuspended in 1 mL of 0.85% NaCl solution. To generate a standard curve, half of the bacteria that was not treated with vehicle or compound were heat-killed for one hour and then mixed with live cells in known proportions (0%, 25%, 50%, 75% and 100% alive). The 100% live cells were used as the negative control. To assess the viability, a fluorescent based kit was used. Live/Dead BacLight Bacterial Viability Kit (Invitrogen L7012) allows for differentiation between alive and dead bacteria at a highly accurate and sensitive way. […]\nSamples were then run on the flow cytometer (FACScan). […] From these established regions, percent viability of the experimental samples were determined."}, "[10]": {"system": "IL-6", "assay": "LPS-activated cytokine release from human primary monocytes (xMAP Luminex): IL-6", "format": "cell-based", "details": "24 hours", "protocol": "as §2, §5"}, "[11]": {"system": "periodontal disease established by P. gingivalis", "assay": "Rabbit periodontal disease established by P. gingivalis, topical treatment", "format": "in vivo, New-Zealand White rabbits", "from_the_text": "Fifteen New-Zealand White rabbits are distributed into 3 groups: (1)\nNo treatment (5 animals), (2) Placebo treatment (5 animals), and (3) myristic acid treatment (5 animals). In all animals, periodontal disease is established by P. gingivalis application every-other-day over a 6-week period. At 6 weeks, P. gingivalis application is terminated and topical use of the myristic acid and placebo agents is initiated for a second 6 weeks at which time animals are sacrificed. Morphometric, radiographic, and histologic evaluations are performed. Histologic sections are stained with hematoxylin-eosin, and tartrate-resistant acid phosphatase (TRAP) for descriptive histology and osteoclast activity. In addition, osteocalcin staining is used to detect osteoblast activity."}, "[12]": {"system": "IL-1β", "assay": "LPS-activated cytokine release from human primary monocytes (xMAP Luminex): IL-1β", "format": "cell-based", "details": "24 hours", "protocol": "as §2, §3, §4"}, "[13]": {"system": "IL-2", "assay": "CD3/CD28-activated cytokine release from human primary T-lymphocytes: IL-2", "format": "cell-based", "details": "24 hour period; FIG. 8", "protocol": "as §1"}}}
{"smiles": "CCCCCCCCCCCCCCCCOC(=O)CCCCCCCCCCCCC", "note": "[Cetyl Myristate, cetyl myristate]", "values": [{"measurement": "T-lymphocyte release of IL-10 (activation)", "setting": "[1]", "value": "most potent activator"}, {"measurement": "IL-5 release by human T cells (activation)", "setting": "[2]", "value": "most potent activator"}, {"measurement": "dose dependence of activation of T-cell IFN-γ release", "setting": "[3]; 10^−5-10^−9M", "value": "dose-dependent activation"}, {"measurement": "monocyte-mediated MCP-1 release, inhibition", "setting": "[4]; 6 hours", "value": "inhibited"}, {"measurement": "monocyte-mediated MCP-1 release, inhibition", "setting": "[4]; 24 hours", "value": "inhibited"}, {"measurement": "monocyte-mediated TNF-α release, inhibition (text)", "setting": "[5]; 6 hours", "value": "inhibits"}, {"measurement": "monocyte-mediated TNF-α release, inhibition (text)", "setting": "[5]; 24 hours, listed as Cetyl myristate", "value": "inhibition on TNF-α continued"}, {"measurement": "monocyte-mediated IL-8 release, inhibition", "setting": "[6]", "value": "inhibited"}, {"measurement": "IL-4 generation by human T cells (activation)", "setting": "[7]", "value": "most potent compound tested"}]}
{"smiles": "CCCCCCCCCCCCCC(=O)O", "note": "[Myristic Acid, Myristic acid]", "values": [{"measurement": "monocyte-mediated IL-12 release, inhibition", "setting": "[8]", "value": "significantly and dose dependently inhibited"}, {"measurement": "antibacterial capacity (percentage of dead bacteria) compared with chlorhexidine", "setting": "[9]", "value": "comparable level of antibacterial capacity as seen with chlorhexidine"}, {"measurement": "dose dependence of antibacterial activity against P. gingivalis", "setting": "[9]; FIG. 2, increases dramatically at 0.1 mg/ml and higher doses (e.g., 1 mg/ml)", "value": "dose-dependent"}, {"measurement": "monocyte-mediated IL-6 release, inhibition", "setting": "[10]", "value": "significantly and dose dependently inhibited"}, {"measurement": "histomorphometric tissue and bone level vs placebo and no treatment", "setting": "[11]; 6 weeks", "value": "significant changes in tissue and bone level"}, {"measurement": "inflammatory changes in hematoxylin-eosin stained sections", "setting": "[11]; 6 weeks", "value": "complete reversal of inflammatory changes"}, {"measurement": "reformation of soft and bone tissues lost to periodontal inflammation", "setting": "[11]; 6 weeks", "value": "reform soft and bone tissues"}, {"measurement": "progression of gingival inflammation and bone destruction induced by P. gingivalis", "setting": "[11]; 6 weeks after 6 weeks of disease induction", "value": "stops the progression"}, {"measurement": "osteoclastic activity", "setting": "[11]; 6 weeks, TRAP staining", "value": "significantly suppresses"}, {"measurement": "osteoblastic activity", "setting": "[11]; 6 weeks, osteocalcin staining", "value": "increased osteoblastic activity"}, {"measurement": "monocyte-mediated IL-1β release, inhibition", "setting": "[12]", "value": "significantly and dose dependently inhibited"}, {"measurement": "activation of IFN-γ release by T-lymphocytes", "setting": "[3]; over 24 and 48 hours", "value": "capacity to activate IFN-γ release by T cells and this effect increased over time"}, {"measurement": "monocyte-mediated MCP-1 release, inhibition", "setting": "[4]; 24 hours", "value": "significantly and dose dependently inhibited"}, {"measurement": "effect on T-lymphocyte IL-2 production", "setting": "[13]", "value": "activated"}, {"measurement": "monocyte-mediated TNF-α release, inhibition (text)", "setting": "[5]; 24 hours", "value": "all cytokines except TNF-α"}, {"measurement": "monocyte-mediated IL-8 release, inhibition", "setting": "[6]", "value": "significantly and dose dependently inhibited"}]}
{"smiles": "CCCCCCCCCCCCCCCCOC(=O)CCCCCCCCCCCCC", "note": "[Palmityl Myristate, palmityl myristate]", "values": [{"measurement": "monocyte-mediated TNF-α release, inhibition (text)", "setting": "[5]; 24 hours, listed as palmityl myristate", "value": "blocked TNF-α release, however the inhibition was weaker compared to cetyl myristate"}]}
{"smiles": "CCCC/C=C\\CCCCCCCC(=O)OCCCCCCCCCCCCCCCC", "note": "[Palmityl Myristoleate, palmityl myristoleate]", "values": [{"measurement": "monocyte-mediated IL-1β release, inhibition", "setting": "[12]", "value": "significantly and fully inhibited"}, {"measurement": "effect on IFN-γ production by T-lymphocytes", "setting": "[3]; 24 hour mark", "value": "inhibit"}, {"measurement": "effect on IFN-γ production by T-lymphocytes", "setting": "[3]; 48 hour mark", "value": "inhibit"}, {"measurement": "monocyte-mediated TNF-α release, inhibition (text)", "setting": "[5]; 24 hours", "value": "significantly and fully inhibited"}]}
{"smiles": "CCCCCCCC/C=C\\CCCCCCCC(=O)OCCCCCCCCCCCCCCCC", "note": "[Palmityl Oleate, palmityl oleate]", "values": [{"measurement": "monocyte-mediated IL-1β release, inhibition", "setting": "[12]", "value": "significantly and fully inhibited"}, {"measurement": "effect on IFN-γ production by T-lymphocytes", "setting": "[3]; 24 hour mark", "value": "inhibit"}, {"measurement": "monocyte-mediated TNF-α release, inhibition (text)", "setting": "[5]; 24 hours", "value": "significantly and fully inhibited"}]}
{"smiles": "CCCCCCCCCCCCCC(=O)[O-].[Na+]", "note": "[sodium myristate]", "values": [{"measurement": "antibacterial capacity (percentage of dead bacteria) compared with chlorhexidine", "setting": "[9]", "value": "comparable level of antibacterial capacity as seen with chlorhexidine"}]}
